Assay results taken from patent US9040525B2, “Cyclic amide derivative” (MOCHIDA PHARMACEUTICAL CO., LTD., priority 2010, dated 2015).
Counter-ions that a name gives are not always drawn.

These compounds were tested against T1, GPR40 of human origin (Homo sapiens, UniProt O14842) (assay: Agonist action on GPR40 of human origin (Ca2+ fluorescence, CHO cell strain stably expressing GPR40)). Conditions: fluctuation of Ca2+ concentration.
T1 construct: expressed in transfected cells
Type: cell-based
Method: A CHO cell strain stably expressing GPR40 of human origin was used to determine the agonist action of a title compound. This cell strain was seeded in a clear bottom 96 well plate at 2×10^4 cells/100 μL/well. The cell strain was cultured in a CO2 incubator overnight using a Ham's F-12 medium containing a 10% fetal bovine serum, 100 U/mL penicillin, 0.1 mg/mL streptomycin, and 400 μg/mL. Geneticin. Calcium 4 Assay Kit (Molecular Devices) was used as a fluorescent calcium indicator. One mL of 77 mg/mL probenecid (Invitrogen) was added to 100 mL of a calcium indicator solution to prepare a solution (loading solution) mixed with a 20 mM HEPES-containing Hanks' balanced salt solution (HBSS) in equal proportions. To the cells from which the culture solution was removed, 200 μL of the loading solution was added, and the cells were cultured in a CO2 incubator for 1 hour. The title compound was diluted with a 20 mM HEPES-containing HBSS and was added to the cells by 50 μL, and the fluctuation of the Ca^2+concentration was measured by an intracellular ion analyzer. The EC50 value of the title compound was calculated using the dose-response curve of fluorescence intensity variation.

T1 sequence (O14842 whole entry): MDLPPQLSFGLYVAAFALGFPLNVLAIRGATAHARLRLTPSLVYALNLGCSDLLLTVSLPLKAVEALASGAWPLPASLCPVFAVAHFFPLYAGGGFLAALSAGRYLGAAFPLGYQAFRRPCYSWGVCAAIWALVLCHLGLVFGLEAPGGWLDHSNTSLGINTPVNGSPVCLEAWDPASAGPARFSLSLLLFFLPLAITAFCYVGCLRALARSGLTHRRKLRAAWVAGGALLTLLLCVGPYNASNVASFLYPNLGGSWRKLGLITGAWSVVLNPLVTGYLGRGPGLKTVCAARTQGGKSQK

EC50 [nM]	Structure (SMILES)
< 300	Cc1cc(OCCCS(C)(=O)=O)cc(C)c1-c1cccc(COc2ccc(C3CC(=O)N[S+]3[O-])cc2)c1 (centres unmarked) [Example 13, 5-[4-[[3-[2,6-dimethyl 4-(3-methylsulfonylpropoxy)phenyl]phenyl]methoxy]phenyl]-1-oxo-1,2-thiazolidin-3-one]
< 300	Cc1cc(OCc2cccc(-c3c(C)cccc3C)c2)ccc1N1CC(=O)NS1(=O)=O [Example 17, 5-[4-[[3-(2,6-dimethylphenyl)phenyl]methoxy]-2-methylphenyl]-1,1-dioxo-1,2,5-thiadiazolidin-3-one]
< 300	Cc1cc(OCCCS(C)(=O)=O)nc(C)c1-c1cccc(COc2ccc(C3CC(=O)N[S+]3[O-])cc2)c1 (centres unmarked) [Example 5, 5-[4-[[3-[2,4-dimethyl-6-(3-methylsulfonylpropoxy)pyridin-3-yl]phenyl]methoxy]phenyl]-1-oxo-1,2-thiazolidin-3-one]
< 300	Cc1cc(OC[C@H](O)CO)cc(C)c1-c1cccc(COc2ccc(C3CC(=O)N[S+]3[O-])cc2)c1 (stereo partly drawn) [Example 9, 5-[4-[[3-[4-[(2R)-2,3-dihydroxypropoxy]-2,6-dimethylphenyl]phenyl]methoxy]phenyl]-1-oxo-1,2-thiazolidin-3-one]
< 300	O=C1CC(c2ccc(O[C@@H]3CCc4c(Br)cccc43)cc2)[S+]([O-])N1 (stereo partly drawn) [Example 29, 5-(4-(((R)-4-bromo-2,3-dihydro-1H-inden-1-yl)oxy)phenyl)-1-oxo-1,2-thiazolidin-3-one]
< 300	Cc1cccc(C)c1-c1cccc(COc2ccc(C3CC(=O)NS(=O)(=O)C3)cc2)c1 (racemic) [Example 22, 5-[4-[[3-(2,6-dimethylphenyl)phenyl]methoxy]phenyl]-1,1-dioxo-1,2-thiazinan-3-one]
< 300	O=C1CC(c2ccc(O[C@@H]3CCc4c(Oc5ccccc5)cccc43)cc2)[S+]([O-])N1 (stereo partly drawn) [Example 27, 5-(4-(((R)-4-phenoxy-2,3-dihydro-1H-inden-1-yl)oxy)phenyl)-1-oxo-1,2-thiazolidin-3-one]
< 300	Cc1cc(OCCCO)cc(C)c1-c1cccc(COc2ccc(C3CC(=O)N[S+]3[O-])cc2)c1 (centres unmarked) [Example 8, 5-[4-[[3-[4-(3-hydroxypropoxy)-2,6-dimethylphenyl]phenyl]methoxy]phenyl]-1-oxo-1,2-thiazolidin-3-one]
< 300	Cc1cc(OCCCS(C)(=O)=O)cc(C)c1-c1cccc(COc2ccc(C3CC(=O)NS(=O)(=O)C3)cc2)c1 (centres unmarked) [Example 31, 5-[4-[[3-[2,6-dimethyl 4-(3-methylsulfonylpropoxy)phenyl]phenyl]methoxy]phenyl]-1,1-dioxo-1,2-thiazinan-3-one]
< 300	Cc1cc(OCC(CO)CO)cc(C)c1-c1cccc(COc2ccc(C3CC(=O)N[S+]3[O-])cc2)c1 (centres unmarked) [Example 10, 5-[4-[[3-[4-[3-hydroxy-2-(hydroxymethyl)propoxy]-2,6-dimethylphenyl]phenyl]methoxy]phenyl]-1-oxo-1,2-thiazolidin-3-one]
< 300	N#Cc1ccc(Oc2cccc3c2CC[C@H]3Oc2ccc(C3CC(=O)NS(=O)(=O)N3)cc2)cc1 (stereo partly drawn) [Example 26, 4-(((1R)-1-(4-(1,1-dioxo-1,2,6-thiadiazinan-3-on-5-yl)phenoxy)-2,3-dihydro-1H-inden-4-yl)oxy)benzonitrile]
< 300	CCOCCOc1cc(C)c(-c2cccc(COc3ccc(C4CC(=O)N[S+]4[O-])cc3)c2)c(C)c1 (mixture of isomers) [Example 1, 5-[4-[[3-[4-(2-ethoxyethoxy)-2,6-dimethylphenyl]phenyl]methoxy]phenyl]-1-oxo-1,2-thi azolidin-3-one]
< 300	O=C1CC(c2ccc(O[C@@H]3CCc4c(Br)cccc43)cc2)CS(=O)(=O)N1 (stereo partly drawn) [Example 33, 5-(4-(((R)-4-bromo-2,3-dihydro-1H-inden-1-yl)oxy)phenyl)-1,1-dioxo-1,2-thiazinan-3-one]
300 to 3000	Cc1nc(OCCC(C)(C)O)ccc1-c1cccc2c1CC[C@H]2Oc1ccc(C2CC(=O)N[S+]2[O-])cc1 (single isomer, unassigned) [23(A)-b]
300 to 3000	O=C1CC(c2ccc(OC3COc4c3cccc4C(F)(F)F)cc2)[S+]([O-])N1 (centres unmarked) [Example 28]
< 300	Cc1cccc(C)c1-c1cccc(COc2ccc(N3CC(=O)NS3(=O)=O)cc2)c1 [Example 14, 5-[4-[[3-(2,6-dimethylphenyl)phenyl]methoxy]phenyl]-1,1-dioxo-1,2,5-thiadiazolidin-3-one]
300 to 3000	Cc1cccc(C)c1-c1cccc(COc2ccc(N3C(C)C(=O)NS3(=O)=O)cc2)c1 (centres unmarked) [Example 18, 5-[4-[[3-(2,6-dimethylphenyl)phenyl]methoxy]phenyl]-4-methyl-1,1-dioxo-1,2,5-thiadiazolidin-3-one]
< 300	Cc1cc(OCCCN)cc(C)c1-c1cccc(COc2ccc(C3CC(=O)N[S+]3[O-])cc2)c1 (centres unmarked) [Example 11, 5-[4-[[3-[4-(3-aminopropoxy)-2,6-dimethylphenyl]phenyl]methoxy]phenyl]-1-oxo-1,2-thiazolidin-3-one trifluoroacetic acid salt]
< 300	Cc1cc(OCCC(C)(C)O)cc(C)c1-c1cccc2c1CC[C@H]2Oc1ccc(C2CC(=O)N[S+]2[O-])cc1 (single isomer, unassigned) [24(A)-a]
< 300	Cc1cccc(C)c1-c1cccc(COc2ccc(C3CC(=O)NS(=O)(=O)N3)cc2)c1 (racemic) [Example 21, 5-[4-[[3-(2,6-dimethylphenyl)phenyl]methoxy]phenyl]-1,1-dioxo-1,2,6-thiadiazinan-3-one]
< 300	N#Cc1ccc(Oc2cccc3c2CC[C@H]3Oc2ccc(C3CC(=O)NS(=O)(=O)C3)cc2)cc1 (stereo partly drawn) [Example 32, 4-(((1R)-1-(4-(1,1-dioxo-3-oxo-1,2-thiazinan-5-yl)phenoxy)-2,3-dihydro-1H-inden-4-yl)oxy)benzonitrile]
< 300	Cc1cccc(C)c1-c1cccc(COc2ccc(N3CC(=O)NS3(=O)=O)c(Cl)c2)c1 [Example 16, 5-[2-chloro-4-[[3-(2,6-dimethylphenyl)phenyl]methoxy]phenyl]-1,1-dioxo-1,2,5-thiadiazolidin-3-one]
< 300	Cc1cc(OCCCS(C)(=O)=O)cc(C)c1-c1cccc(COc2ccc(C3CC(=O)NS3(=O)=O)cc2)c1 (racemic) [Example 19, 5-[4-[[3-[2,6-dimethyl 4-(3-methylsulfonylpropoxy)phenyl]phenyl]methoxy]phenyl]-1,1-dioxo-1,2-thiazolidin-3-one]
300 to 3000	Cc1cc(OCCCS(C)(=O)=O)cc(C)c1-c1cccc(COc2ccc(N3CC(=O)NS3(=O)=O)cc2)c1 [Example 15, 5-[4-[[3-[2,6-dimethyl-4-(3-methylsulfonylpropoxy)phenyl]phenyl]methoxy]phenyl]-1,1-dioxo-1,2,5-thiadiazolidin-3-one]

Structure (SMILES)	EC50 [nM]
Cc1cc(OCC[C@@H](C)O)cc(C)c1-c1cccc(COc2ccc(C3CC(=O)N[S+]3[O-])cc2)c1 (mixture of isomers) [Example 12, 5-[4-[[3-[4-[(3R)-3-hydroxybutoxy]-2,6-dimethylphenyl]phenyl]methoxy]phenyl]-1-oxo-1,2-thiazolidin-3-one]	< 300
Cc1cc(OCCC(C)(C)O)nc(C)c1-c1cccc(COc2ccc(C3CC(=O)N[S+]3[O-])cc2)c1 (centres unmarked) [Example 6, 5-[4-[[3-[6-(3-hydroxy-3-methylbutoxy)-2,4-dimethylpyridin-3-yl]phenyl]methoxy]phenyl]-1-oxo-1,2-thiazolidin-3-one]	< 300
Cc1cc(OCCC(C)(C)O)cc(C)c1-c1cccc(COc2ccc(C3CC(=O)N[S+]3[O-])cc2)c1 (centres unmarked) [Example 4, 5-[4-[[3-[4-(3-hydroxy-3-methylbutoxy)-2,6-dimethylphenyl]phenyl]methoxy]phenyl]-1-oxo-1,2-thiazolidin-3-one]	< 300
Cc1cc(OCCC(C)(C)O)cc(C)c1-c1cccc2c1CC[C@H]2Oc1ccc(C2CC(=O)NS(=O)(=O)C2)cc1 (stereo partly drawn) [Example 34, 5-(4-(((R)-4-(4-(3-hydroxy-3-methylbutoxy)-2,6-dimethylphenyl)-2,3-dihydro-1H-inden-1-yl)oxy)phenyl)-1,1-dioxo-1,2-thiazinan-3-one]	< 300
Cc1cc(OCCC(C)(C)O)nc(C)c1-c1cccc(COc2ccc(C3CC(=O)NS(=O)(=O)C3)cc2)c1 (centres unmarked) [Example 35, 5-[4-[[3-[6-(3-hydroxy-3-methylbutoxy)-2,4-dimethylpyridin-3-yl]phenyl]methoxy]phenyl]-1,1-dioxo-1,2-thiazinan-3-one]	< 300
Cc1cc(OCCC(C)(C)O)nc(C)c1-c1cccc(COc2ccc(C3CC(=O)NS3(=O)=O)cc2)c1 (racemic) [Example 20, 5-[4-[[3-[6-(3-hydroxy-3-methylbutoxy)-2,4-dimethylpyridin-3-yl]phenyl]methoxy]phenyl]-1,1-dioxo-1,2-thiazolidin-3-one]	300 to 3000
Cc1cc(-c2cccc(COc3ccc(C4CC(=O)N[S+]4[O-])cc3)c2)c(C)cc1OCCC(C)(C)O (centres unmarked) [Example 7, 5-[4-[[3-[4-(3-hydroxy-3-methylbutoxy)-2,5-dimethylphenyl]phenyl]methoxy]phenyl]-1-oxo-1,2-thiazolidin-3-one]	< 300
Cc1cc(OCCC(C)(C)O)c(F)c(C)c1-c1cccc(COc2ccc(C3CC(=O)N[S+]3[O-])cc2)c1 (centres unmarked) [Example 3, 5-[4-[[3-[3-fluoro-4-(3-hydroxy-3-methylbutoxy)-2,6-dimethylphenyl]phenyl]methoxy]phenyl]-1-oxo-1,2-thiazolidin-3-one]	< 300
